Experimental data published in ChEMBL document CHEMBL5442175, “EUbOPEN Chemogenomics Library - PDSP Secondary Binding” (2024).

Key:
[1] = molecular target: 5-hydroxytryptamine receptor 1D (Homo sapiens, UniProt P28221); test: (§1) PDSP Secondary Binding target: HTR1D - Compounds are tested at 10 uM concentration, plate are incubated at room temperature in the dark for 90 minutes. Reaction are stopped by vacuum filtration onto 0.3% polyethyleneimine soaked filter mats using Filtermate harvester. Scintillation cocktail is then melted onto microwave-dried filters on a hot plate and the radio activity is counted in Microbia counter.
Chain of 5-hydroxytryptamine receptor 1D (P28221 whole entry): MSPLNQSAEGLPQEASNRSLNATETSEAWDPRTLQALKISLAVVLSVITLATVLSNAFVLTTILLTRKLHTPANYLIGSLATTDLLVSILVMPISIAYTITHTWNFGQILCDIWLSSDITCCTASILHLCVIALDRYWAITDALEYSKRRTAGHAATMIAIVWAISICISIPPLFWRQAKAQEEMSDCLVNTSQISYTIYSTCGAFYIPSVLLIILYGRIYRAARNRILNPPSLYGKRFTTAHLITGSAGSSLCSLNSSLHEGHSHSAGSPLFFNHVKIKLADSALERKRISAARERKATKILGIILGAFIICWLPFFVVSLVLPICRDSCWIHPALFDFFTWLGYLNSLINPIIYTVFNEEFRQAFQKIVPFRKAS

[2] = molecular target: Mu-type opioid receptor (Homo sapiens, UniProt P35372); test: as §1, with “OPRM1” for “HTR1D”
Chain of Mu-type opioid receptor (P35372 whole entry): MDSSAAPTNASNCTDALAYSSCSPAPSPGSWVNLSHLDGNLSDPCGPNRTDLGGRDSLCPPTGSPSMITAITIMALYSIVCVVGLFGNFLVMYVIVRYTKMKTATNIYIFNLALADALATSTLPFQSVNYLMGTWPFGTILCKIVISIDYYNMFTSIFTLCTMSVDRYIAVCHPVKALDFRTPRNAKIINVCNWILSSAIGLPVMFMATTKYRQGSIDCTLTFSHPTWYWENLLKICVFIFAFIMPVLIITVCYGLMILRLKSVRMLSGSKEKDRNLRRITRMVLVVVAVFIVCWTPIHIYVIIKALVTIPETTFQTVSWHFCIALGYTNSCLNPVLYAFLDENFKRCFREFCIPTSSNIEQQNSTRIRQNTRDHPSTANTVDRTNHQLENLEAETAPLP

[3] = molecular target: 5-hydroxytryptamine receptor 5A (Homo sapiens, UniProt P47898); test: as §1, with “HTR5A” for “HTR1D”
Chain of 5-hydroxytryptamine receptor 5A (P47898 whole entry): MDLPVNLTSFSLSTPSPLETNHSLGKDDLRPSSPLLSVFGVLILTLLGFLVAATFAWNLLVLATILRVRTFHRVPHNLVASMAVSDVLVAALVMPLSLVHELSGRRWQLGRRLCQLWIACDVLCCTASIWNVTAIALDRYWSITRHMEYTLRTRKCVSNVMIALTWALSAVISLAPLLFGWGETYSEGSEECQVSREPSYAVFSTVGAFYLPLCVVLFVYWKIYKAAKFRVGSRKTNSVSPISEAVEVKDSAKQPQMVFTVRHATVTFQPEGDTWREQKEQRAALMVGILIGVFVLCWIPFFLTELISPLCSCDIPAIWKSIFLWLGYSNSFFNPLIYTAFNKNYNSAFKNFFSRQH

[4] = molecular target: 5-hydroxytryptamine receptor 7 (Homo sapiens, UniProt P34969); test: as §1, with “HTR7” for “HTR1D”
Chain of 5-hydroxytryptamine receptor 7 (P34969 whole entry): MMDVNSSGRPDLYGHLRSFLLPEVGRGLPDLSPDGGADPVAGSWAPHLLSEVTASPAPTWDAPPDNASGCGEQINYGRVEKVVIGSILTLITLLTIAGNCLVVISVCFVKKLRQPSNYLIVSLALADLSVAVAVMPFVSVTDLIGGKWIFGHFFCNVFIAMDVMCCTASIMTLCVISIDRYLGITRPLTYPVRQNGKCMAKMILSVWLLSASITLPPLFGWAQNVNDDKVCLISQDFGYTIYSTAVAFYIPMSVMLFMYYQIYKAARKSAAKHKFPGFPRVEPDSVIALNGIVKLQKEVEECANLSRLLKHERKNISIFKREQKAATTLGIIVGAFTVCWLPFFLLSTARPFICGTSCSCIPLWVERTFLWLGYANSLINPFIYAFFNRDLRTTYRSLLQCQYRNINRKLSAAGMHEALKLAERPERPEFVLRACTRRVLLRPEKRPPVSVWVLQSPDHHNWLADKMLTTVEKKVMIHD

[5] = molecular target: 5-hydroxytryptamine receptor 1E (Homo sapiens, UniProt P28566); test: as §1, with “HTR1E” for “HTR1D”
Chain of 5-hydroxytryptamine receptor 1E (P28566 whole entry): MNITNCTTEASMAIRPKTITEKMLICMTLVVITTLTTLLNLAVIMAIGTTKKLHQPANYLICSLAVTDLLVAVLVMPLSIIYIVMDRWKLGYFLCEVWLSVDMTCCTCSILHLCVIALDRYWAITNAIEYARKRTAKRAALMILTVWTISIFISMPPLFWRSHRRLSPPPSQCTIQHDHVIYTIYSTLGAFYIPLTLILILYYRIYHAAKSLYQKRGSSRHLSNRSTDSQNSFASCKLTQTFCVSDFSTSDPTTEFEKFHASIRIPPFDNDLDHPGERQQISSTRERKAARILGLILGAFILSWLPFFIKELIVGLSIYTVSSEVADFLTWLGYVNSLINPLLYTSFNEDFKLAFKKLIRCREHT

[6] = molecular target: Sigma intracellular receptor 2 (Homo sapiens, UniProt Q5BJF2); test: as §1, with “TMEM97” for “HTR1D”
Chain of Sigma intracellular receptor 2 (Q5BJF2 whole entry): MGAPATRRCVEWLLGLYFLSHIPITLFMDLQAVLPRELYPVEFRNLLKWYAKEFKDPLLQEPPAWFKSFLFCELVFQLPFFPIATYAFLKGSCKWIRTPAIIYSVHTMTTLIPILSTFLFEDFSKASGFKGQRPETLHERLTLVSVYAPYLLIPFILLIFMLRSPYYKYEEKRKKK

[7] = molecular target: T1, Alpha-2C adrenergic receptor (Homo sapiens, UniProt P18825); test: as §1, with “ADRA2C” for “HTR1D”
T1 sequence (P18825 whole entry): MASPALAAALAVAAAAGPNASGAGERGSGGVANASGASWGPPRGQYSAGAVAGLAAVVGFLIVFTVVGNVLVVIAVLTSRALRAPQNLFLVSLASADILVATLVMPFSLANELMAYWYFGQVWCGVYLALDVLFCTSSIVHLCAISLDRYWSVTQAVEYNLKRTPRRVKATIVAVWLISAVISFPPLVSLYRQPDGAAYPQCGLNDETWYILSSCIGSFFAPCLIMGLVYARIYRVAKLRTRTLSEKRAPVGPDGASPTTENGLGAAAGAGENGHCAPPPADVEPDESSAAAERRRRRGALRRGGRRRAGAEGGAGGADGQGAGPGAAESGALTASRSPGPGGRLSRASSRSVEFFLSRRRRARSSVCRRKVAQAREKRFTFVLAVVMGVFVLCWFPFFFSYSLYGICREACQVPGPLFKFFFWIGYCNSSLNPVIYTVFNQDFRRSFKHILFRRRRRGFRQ

[8] = molecular target: D(1B) dopamine receptor (Homo sapiens, UniProt P21918); test: as §1, with “DRD5” for “HTR1D”
Chain of D(1B) dopamine receptor (P21918 whole entry): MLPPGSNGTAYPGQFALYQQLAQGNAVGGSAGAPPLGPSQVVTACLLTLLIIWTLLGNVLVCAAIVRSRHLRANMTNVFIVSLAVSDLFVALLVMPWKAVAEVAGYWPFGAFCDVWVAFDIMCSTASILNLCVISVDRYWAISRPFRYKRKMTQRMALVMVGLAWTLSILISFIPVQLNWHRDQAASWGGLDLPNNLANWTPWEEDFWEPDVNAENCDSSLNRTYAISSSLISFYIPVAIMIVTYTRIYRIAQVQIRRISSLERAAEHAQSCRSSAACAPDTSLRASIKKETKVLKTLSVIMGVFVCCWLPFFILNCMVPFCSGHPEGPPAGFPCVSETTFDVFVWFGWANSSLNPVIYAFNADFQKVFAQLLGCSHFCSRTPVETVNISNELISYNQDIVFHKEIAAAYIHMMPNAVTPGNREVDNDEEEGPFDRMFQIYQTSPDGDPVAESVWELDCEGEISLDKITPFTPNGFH

[9] = molecular target: Beta-3 adrenergic receptor (Homo sapiens, UniProt P13945); test: as §1, with “ADRB3” for “HTR1D”
Chain of Beta-3 adrenergic receptor (P13945 whole entry): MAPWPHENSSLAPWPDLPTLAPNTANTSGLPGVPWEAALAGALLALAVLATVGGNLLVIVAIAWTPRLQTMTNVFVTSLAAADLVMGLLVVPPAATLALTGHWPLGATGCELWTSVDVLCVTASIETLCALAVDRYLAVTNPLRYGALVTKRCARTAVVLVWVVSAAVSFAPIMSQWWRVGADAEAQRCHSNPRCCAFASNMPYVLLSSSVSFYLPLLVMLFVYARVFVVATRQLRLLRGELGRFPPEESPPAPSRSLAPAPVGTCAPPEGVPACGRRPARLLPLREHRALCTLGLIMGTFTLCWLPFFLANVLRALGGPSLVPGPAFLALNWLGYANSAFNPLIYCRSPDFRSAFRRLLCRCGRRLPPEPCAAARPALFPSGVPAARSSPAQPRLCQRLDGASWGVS

[10] = molecular target: 5-hydroxytryptamine receptor 2A (Homo sapiens, UniProt P28223); test: as §1, with “HTR2A” for “HTR1D”
[11] = molecular target: D(3) dopamine receptor (Homo sapiens, UniProt P35462); test: as §1, with “DRD3” for “HTR1D”
Chain of D(3) dopamine receptor (P35462 whole entry): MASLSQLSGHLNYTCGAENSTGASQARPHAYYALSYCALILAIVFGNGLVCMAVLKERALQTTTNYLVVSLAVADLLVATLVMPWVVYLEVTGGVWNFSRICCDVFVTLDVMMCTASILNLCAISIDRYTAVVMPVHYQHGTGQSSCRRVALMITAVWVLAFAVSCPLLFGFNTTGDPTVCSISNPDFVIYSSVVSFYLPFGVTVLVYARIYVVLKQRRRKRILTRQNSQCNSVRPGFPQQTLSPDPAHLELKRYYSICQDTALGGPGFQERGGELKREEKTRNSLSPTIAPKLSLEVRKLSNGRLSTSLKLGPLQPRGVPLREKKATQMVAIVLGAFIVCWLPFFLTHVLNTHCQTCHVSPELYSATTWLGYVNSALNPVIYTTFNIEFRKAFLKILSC

[12] = molecular target: T2, Alpha-1D adrenergic receptor (Homo sapiens, UniProt P25100); test: as §1, with “ADRA1D” for “HTR1D”
T2 sequence (P25100 whole entry): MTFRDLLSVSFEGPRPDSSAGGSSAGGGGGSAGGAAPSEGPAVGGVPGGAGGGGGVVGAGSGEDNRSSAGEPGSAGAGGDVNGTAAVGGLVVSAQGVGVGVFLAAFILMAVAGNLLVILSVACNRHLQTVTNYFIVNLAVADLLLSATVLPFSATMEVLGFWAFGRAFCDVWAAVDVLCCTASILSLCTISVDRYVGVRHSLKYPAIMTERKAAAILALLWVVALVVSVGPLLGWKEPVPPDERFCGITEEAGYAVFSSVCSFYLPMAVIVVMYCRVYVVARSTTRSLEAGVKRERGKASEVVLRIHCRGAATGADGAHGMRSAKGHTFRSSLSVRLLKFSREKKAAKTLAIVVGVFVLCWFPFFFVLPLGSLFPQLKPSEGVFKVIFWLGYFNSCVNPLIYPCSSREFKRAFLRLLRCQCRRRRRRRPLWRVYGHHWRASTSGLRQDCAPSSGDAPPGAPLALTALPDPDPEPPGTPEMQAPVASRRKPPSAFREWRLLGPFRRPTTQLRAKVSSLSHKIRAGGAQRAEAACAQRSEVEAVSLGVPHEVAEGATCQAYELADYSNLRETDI

[13] = molecular target: Translocator protein (Homo sapiens, UniProt P30536); test: as §1, with “TSPO” for “HTR1D”
Chain of Translocator protein (P30536 whole entry): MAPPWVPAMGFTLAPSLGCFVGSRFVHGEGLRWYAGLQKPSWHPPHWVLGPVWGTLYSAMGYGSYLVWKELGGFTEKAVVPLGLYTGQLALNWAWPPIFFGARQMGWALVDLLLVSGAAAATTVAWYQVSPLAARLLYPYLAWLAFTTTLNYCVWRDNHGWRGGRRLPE

[14] = molecular target: Sodium-dependent noradrenaline transporter (Homo sapiens, UniProt P23975); test: as §1, with “SLC6A2” for “HTR1D”
Chain of Sodium-dependent noradrenaline transporter (P23975 whole entry): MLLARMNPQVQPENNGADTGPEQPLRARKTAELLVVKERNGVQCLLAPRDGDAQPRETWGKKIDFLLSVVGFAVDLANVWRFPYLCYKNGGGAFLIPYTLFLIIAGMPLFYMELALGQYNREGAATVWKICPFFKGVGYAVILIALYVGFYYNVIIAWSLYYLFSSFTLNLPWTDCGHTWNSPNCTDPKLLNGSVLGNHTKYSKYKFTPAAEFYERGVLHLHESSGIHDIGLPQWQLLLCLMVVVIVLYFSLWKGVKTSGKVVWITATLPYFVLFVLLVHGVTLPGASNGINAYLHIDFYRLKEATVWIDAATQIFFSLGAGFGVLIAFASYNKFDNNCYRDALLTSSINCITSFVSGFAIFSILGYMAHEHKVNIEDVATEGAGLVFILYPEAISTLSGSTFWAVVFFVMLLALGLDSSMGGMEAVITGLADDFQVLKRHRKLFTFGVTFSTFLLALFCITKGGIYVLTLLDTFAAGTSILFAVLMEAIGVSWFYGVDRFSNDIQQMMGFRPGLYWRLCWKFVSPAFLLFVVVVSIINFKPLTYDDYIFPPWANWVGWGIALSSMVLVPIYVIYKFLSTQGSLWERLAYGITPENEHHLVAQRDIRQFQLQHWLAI

[15] = molecular target: Sigma non-opioid intracellular receptor 1 (Homo sapiens, UniProt Q99720); test: as §1, with “SIGMAR1” for “HTR1D”
Chain of Sigma non-opioid intracellular receptor 1 (Q99720 whole entry): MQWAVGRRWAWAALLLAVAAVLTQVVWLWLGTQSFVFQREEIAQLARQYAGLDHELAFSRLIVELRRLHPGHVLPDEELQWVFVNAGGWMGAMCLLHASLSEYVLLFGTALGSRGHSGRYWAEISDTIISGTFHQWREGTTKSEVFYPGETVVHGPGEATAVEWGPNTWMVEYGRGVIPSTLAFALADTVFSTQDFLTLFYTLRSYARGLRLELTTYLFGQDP

[16] = molecular target: T3, Alpha-2A adrenergic receptor (Homo sapiens, UniProt P08913); test: as §1, with “ADRA2A” for “HTR1D”
T3 sequence (P08913 whole entry): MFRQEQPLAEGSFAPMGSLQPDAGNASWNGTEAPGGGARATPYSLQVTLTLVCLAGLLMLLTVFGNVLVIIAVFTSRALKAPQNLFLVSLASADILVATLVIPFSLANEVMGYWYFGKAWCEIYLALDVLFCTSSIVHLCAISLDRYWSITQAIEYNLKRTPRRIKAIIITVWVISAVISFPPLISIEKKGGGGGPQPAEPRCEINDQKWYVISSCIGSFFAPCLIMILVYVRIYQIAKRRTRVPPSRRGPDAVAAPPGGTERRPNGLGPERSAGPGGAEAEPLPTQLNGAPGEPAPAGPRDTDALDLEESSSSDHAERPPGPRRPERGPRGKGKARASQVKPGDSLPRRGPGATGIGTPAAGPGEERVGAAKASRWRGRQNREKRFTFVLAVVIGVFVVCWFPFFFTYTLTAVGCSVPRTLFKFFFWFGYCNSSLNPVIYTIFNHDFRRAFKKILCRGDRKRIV

[17] = molecular target: T4, 5-hydroxytryptamine receptor 1A (Homo sapiens, UniProt P08908); test: as §1, with “HTR1A” for “HTR1D”
T4 sequence (P08908 whole entry): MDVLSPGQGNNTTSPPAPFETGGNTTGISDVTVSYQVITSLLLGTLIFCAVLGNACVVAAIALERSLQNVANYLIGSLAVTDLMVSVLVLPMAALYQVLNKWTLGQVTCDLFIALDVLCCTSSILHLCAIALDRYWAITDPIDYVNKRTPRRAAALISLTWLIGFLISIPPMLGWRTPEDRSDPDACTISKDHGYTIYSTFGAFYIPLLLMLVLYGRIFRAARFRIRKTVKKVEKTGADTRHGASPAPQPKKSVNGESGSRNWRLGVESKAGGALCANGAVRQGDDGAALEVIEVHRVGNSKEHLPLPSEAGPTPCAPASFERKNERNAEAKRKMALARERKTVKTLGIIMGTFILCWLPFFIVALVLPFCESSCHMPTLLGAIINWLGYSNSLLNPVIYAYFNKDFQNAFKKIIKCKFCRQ

[18] = molecular target: T5, Alpha-1B adrenergic receptor (Homo sapiens, UniProt P35368); test: as §1, with “ADRA1B” for “HTR1D”
T5 sequence (P35368 whole entry): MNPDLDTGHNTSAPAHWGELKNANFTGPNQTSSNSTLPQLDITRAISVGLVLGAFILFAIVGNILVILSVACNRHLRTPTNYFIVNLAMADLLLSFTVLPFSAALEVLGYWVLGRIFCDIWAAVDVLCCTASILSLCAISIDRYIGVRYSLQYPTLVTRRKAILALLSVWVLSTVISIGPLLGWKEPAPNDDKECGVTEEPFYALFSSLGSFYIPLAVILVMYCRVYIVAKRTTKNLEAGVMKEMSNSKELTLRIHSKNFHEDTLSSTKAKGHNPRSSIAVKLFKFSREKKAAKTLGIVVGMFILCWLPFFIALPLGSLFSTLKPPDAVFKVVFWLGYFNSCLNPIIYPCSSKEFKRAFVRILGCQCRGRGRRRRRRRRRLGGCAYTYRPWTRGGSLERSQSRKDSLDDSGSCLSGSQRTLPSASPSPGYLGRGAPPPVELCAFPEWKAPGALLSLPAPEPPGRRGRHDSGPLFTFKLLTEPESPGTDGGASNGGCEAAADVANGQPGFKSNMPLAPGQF

[19] = molecular target: T6, D(4) dopamine receptor (Homo sapiens, UniProt P21917); test: as §1, with “DRD4” for “HTR1D”
T6 sequence (P21917 whole entry): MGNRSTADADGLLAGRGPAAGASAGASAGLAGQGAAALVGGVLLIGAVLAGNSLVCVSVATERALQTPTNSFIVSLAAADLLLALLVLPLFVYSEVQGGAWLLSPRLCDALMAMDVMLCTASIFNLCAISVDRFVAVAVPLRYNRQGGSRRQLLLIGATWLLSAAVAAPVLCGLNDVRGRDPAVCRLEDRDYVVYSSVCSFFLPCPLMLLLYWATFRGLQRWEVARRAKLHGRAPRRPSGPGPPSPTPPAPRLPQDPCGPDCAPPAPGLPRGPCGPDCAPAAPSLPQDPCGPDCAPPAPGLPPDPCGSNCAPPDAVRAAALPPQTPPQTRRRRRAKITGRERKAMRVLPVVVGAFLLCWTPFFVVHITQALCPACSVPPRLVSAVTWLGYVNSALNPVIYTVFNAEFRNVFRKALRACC

[20] = molecular target: D(2) dopamine receptor (Homo sapiens, UniProt P14416); test: as §1, with “DRD2” for “HTR1D”
[21] = molecular target: Histamine H3 receptor (Homo sapiens, UniProt Q9Y5N1); test: as §1, with “HRH3” for “HTR1D”
Chain of Histamine H3 receptor (Q9Y5N1 whole entry): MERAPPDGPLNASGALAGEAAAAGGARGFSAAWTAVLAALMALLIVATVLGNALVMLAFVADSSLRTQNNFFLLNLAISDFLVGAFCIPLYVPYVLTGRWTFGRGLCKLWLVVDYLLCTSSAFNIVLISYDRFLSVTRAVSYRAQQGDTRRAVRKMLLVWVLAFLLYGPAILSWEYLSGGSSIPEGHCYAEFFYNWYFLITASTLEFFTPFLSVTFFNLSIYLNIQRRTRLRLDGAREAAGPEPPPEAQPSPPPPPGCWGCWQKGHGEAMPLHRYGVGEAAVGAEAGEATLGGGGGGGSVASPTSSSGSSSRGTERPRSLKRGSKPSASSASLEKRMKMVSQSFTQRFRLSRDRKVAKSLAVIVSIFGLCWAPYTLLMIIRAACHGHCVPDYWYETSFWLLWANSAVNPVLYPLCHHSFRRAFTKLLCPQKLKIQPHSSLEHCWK

Cc1cc(C)cc(-c2cnc3cc(Cl)c(-c4cccc(O)c4)cc3c2OCCCN)c1
Ki [1]: 292 nM
Ki [2]: 5570 nM
Ki [3]: 847 nM
Ki [4]: 2180 nM
Ki [5]: 5710 nM
Ki [6]: 5210 nM
Ki [7]: 846 nM
Ki [8]: 993 nM
Ki [9]: 2780 nM
Ki [10]: 3430 nM
Ki [11]: 416 nM
Ki [12]: 1680 nM
Ki [13]: 522 nM
Ki [14]: 5810 nM
Ki [15]: > 10000 nM
Ki [16]: 852 nM

CN[C@@H]1CCc2[nH]c3ccc(C(N)=O)cc3c2C1 [FROVATRIPTAN SUCCINATE]
Ki [2]: 187 nM
Ki [17]: 1470 nM
Ki [5]: 311 nM
Ki [6]: 3260 nM
Ki [18]: > 10000 nM
Ki [19]: 909 nM
Ki [20]: 694 nM

c1nc(CC2CCNCC2)c[nH]1
Ki [21]: 0.63 nM
